From patent US20050042714A1, “Glycoconjugates of sialic acid derivates, methods for their production and use thereof” (priority 2001, published 2005)

System: HL60-I cells
Experiment: metabolic complementation assay: lectin staining (VVA, LFA, TLM) of analogue-treated cells by flow cytometry
Format: cell-based, human
Conditions: 5 mM, 24 h; for effect on VVA binding: decrease = masking of GalNAc by sialic acid
Protocol: Medium supplementation with some synthetic sialic acid analogues restores cell surface sialylation in hyposialylated HL60-I cells. Cells were cultivated in the presence of indicated synthetic sialic acid analogue (5 mM) for 24 h and stained with either directly fluorochrome-coupled lectins (VVA, LFA) or biotin-coupled lectin (TLM) and streptavidin-FITC and analyzed by flow cytometry. Values are given as “relative factor of change” (RFC) of the “mean fluorescence intensity” (MFI) of sialic acid-treated cells relative to untreated cells. The bars represent arithmetic means±SD (n^34) of one (x) or ≧two experiments.
To test whether cells can incorporate synthetic sialic acid analogues from the culture medium, a metabolic complementation assay was performed on endogenously hyposialylated, UDP-GlcNAc-2-epimerase-deficient HL60-I cells.
Cells were cultivated for 24 h in the presence of one of 16 different synthetic sialic acid analogues, carrying distinct C5 or C9 modifications (FIG. 1), and subsequently, changes in cell surface sialylation were assessed by flow cytometry using three fluorochrome-conjugated sialic acid-sensitive lectins. Vicia villosa agglutinin (VVA) detects GalNAc residues, and its binding sites can be masked by the addition of terminal sialic acid residues.
In sugar supplementation assays, cells seeded at 5×10^5 cells/ml in culture medium buffered with 40 mM HEPES (pH 7.2) were cultivated for 24 h in the presence or absence of 5 mM sialic acids (stocks of 100 mM dissolved in H2O, stored at 4° C.).
Lyophilized FITC-conjugated lectins Vicia villosa (VVA) was obtained from Sigma, dissolved in H2O (1 mg/ml), aliquoted and stored at −20° C. according to the manufacturer's instructions. FITC-conjugated Limax flavus agglutinin (LFA) was from EY Laboratories (San Manteo, Calif., USA) and biotin-coupled Tritrichomonas mobilensis agglutinin (TLM) from Calbiochem. Lectin staining procedure and fluorescence-activated cell scanning on a Becton Dickinson FACScan cytometer using Cellquest II software were carried out as described (Keppler, O. T., Molden-hauer, G., Oppenländer, M., Schwartz-Albiez, R., Berger, E. G., Funderud, S., and Pawlita, M. (1992) Eur J Immunol 22(11), 2777-81). Briefly, cells (3×10^5) were washed twice in cold PBS and then incubated in 100 μl PBS/0.05% NaN3, containing either fluorochrome-conjugated lectins VVA (50 μg/ml), LFA (20 μg/ml), or biotinylated TLM (20 μg/ml) for 45 min on ice in the dark. For biotinylated TLM a secondary incubation step with steptavidin-FITC (20 μg/ml) (Sigma) for 30 min on ice in the dark is required. After washing with PBS, cells were resuspended in 300 μl PBS and analyzed by flow cytometry.

Row | SMILES | effect on VVA binding | effect on LFA binding | effect on TLM binding | also measured
1 | CC(=O)N[C@H]1[C@H]([C@H](O)[C@H](O)CN)OC(O)(C(=O)O)C[C@@H]1O (some centres unmarked) [analogue b, 5-N-acetyl-9-amino-9-deoxy-neuraminic acid] |  |  |  | changes in cell surface sialylation (lectin binding overall): failed to induce changes in cell surface sialylation
2 | CC(=O)NC[C@@H](O)[C@@H](O)[C@@H]1OC(O)(C(=O)O)C[C@H](O)[C@H]1NC(C)=O (some centres unmarked) [analogue c, 5-N-acetyl-9-acetamido-9-deoxy-neuraminic acid] |  |  |  | changes in cell surface sialylation (lectin binding overall): failed to induce changes in cell surface sialylation
3 | CC(=O)N[C@H]1[C@H]([C@H](O)[C@H](O)CNC(=O)CN)OC(O)(C(=O)O)C[C@@H]1O (some centres unmarked) [analogue d, 9-N-aminoacetamido-9-deoxy-neuraminic acid] | weak or no effect on VVA binding |  |  | 
4 | CC(=O)N[C@H]1[C@H]([C@H](O)[C@H](O)CNC(=O)CCC(=O)O)OC(O)(C(=O)O)C[C@@H]1O (some centres unmarked) [analogue e, 5-N-acetyl-9-deoxy-9-succinylamido-neuraminic acid] | weak or no effect on VVA binding |  |  | 
5 | CC(=O)N[C@H]1[C@H]([C@H](O)[C@H](O)CS)OC(O)(C(=O)O)C[C@@H]1O (some centres unmarked) [analogue g, 5-N-acetyl-9-deoxy-9-thio-neuraminic acid] | significantly decreased VVA-binding | increased binding of LFA | increased binding | 
6 | CSC[C@@H](O)[C@@H](O)[C@@H]1OC(O)(C(=O)O)C[C@H](O)[C@H]1NC(C)=O (some centres unmarked) [analogue h, 5-N-acetyl-9-deoxy-9-methylthio-neuraminic acid] | significantly decreased VVA-binding | increased binding of LFA | increased binding | 
7 | CC(=O)N[C@H]1[C@H]([C@H](O)[C@H](O)CS(C)(=O)=O)OC(O)(C(=O)O)C[C@@H]1O (some centres unmarked) [analogue i, 5-N-acetyl-9-deoxy-9-methylsulfonyl-neuraminic acid] | significantly decreased VVA-binding | increased binding of LFA | increased binding | 
8 | O=C(N[C@H]1[C@H]([C@H](O)[C@H](O)CO)OC(O)(C(=O)O)C[C@@H]1O)C(F)(F)F (some centres unmarked) [analogue k, 5-N-trifluoroacetyl-neuraminic acid] | significantly decreased VVA-binding |  |  | 
9 | NCC(=O)N[C@H]1[C@H]([C@H](O)[C@H](O)CO)OC(O)(C(=O)O)C[C@@H]1O (some centres unmarked) [analogue l, 5-N-aminoacetyl-neuraminic acid] | weak or no effect on VVA binding |  |  | 
10 | O=C(O)CCC(=O)N[C@H]1[C@H]([C@H](O)[C@H](O)CO)OC(O)(C(=O)O)C[C@@H]1O (some centres unmarked) [analogue m, 5-N-succinyl-neuraminic acid] | weak or no effect on VVA binding |  |  | 
11 | CC(=S)N[C@H]1[C@H]([C@H](O)[C@H](O)CO)OC(O)(C(=O)O)C[C@@H]1O (some centres unmarked) [analogue n, 5-N-thioacetyl-neuraminic acid] | significantly decreased VVA-binding |  | increased binding | 
12 | CCOC(=O)C1(O)C[C@H](O)[C@@H](NC(C)=O)[C@H]([C@H](O)[C@H](O)CO)O1 (some centres unmarked) [analogue p, ethyl N-acetyl neuraminate] | significantly decreased VVA-binding | increased binding of LFA | increased binding | effect on LFA binding (listed as NeuAc-Et-Ester): very similar to those of NeuAc; effect on TLM binding (listed as NeuAc-Et-Ester): very similar to those of NeuAc
